Assay [1] concerns Renal cancer cell line ACHN cell. Kind of assay: Growth inhibitory effect against cancer cell lines (3H-thymidine uptake), ACHN. Format: cell-based. As to conditions: Homo sapiens, ACHN. The procedure, abridged:
(§1)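 Cells seeded at 1.0×10^4/well, grown 24 hrs, then exposed to compound in DMSO for 18 hrs before 6 hrs pulse with ^3H-thymidine (0.25 μCi/well). Harvested cell-incorporated radioactivity counted; IC50 is the concentration halving uptake versus DMSO control, triplicate.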

Assay [2] concerns colorectal cancer cell line HT-29 cells. As to the kind of experiment: Growth inhibitory effect against cancer cell lines (3H-thymidine uptake), HT-29. As to conditions: Homo sapiens, HT-29, inhibition of 3H-thymidine uptake; test substance 18 hrs, then 3H-thymidine 6 hrs; triplicate. Format: cell-based. The procedure, abridged: as §1
Assay [3] has as its system HT-29 cells. As to the kind of experiment: Evaluation on the nude-mouse xenograft model. As to conditions: HT-29, po, 240 h, 30 mg/kg orally twice a day for 10 days, tumor volume, treated vs vehicle group, n=6-8, read-out: T/C(%). The assay is classed as in vivo, mouse (Balb/c-nu/nu). How it is done: HT-29 cells (5.0×10^6 cells/100 μL/head, suspended in HBSS (Hanks' solution)) in the logarithmic growth phase were implanted in a mouse (Balb/c-nu/nu) at the right lateral abdomen under ether anesthesia. After 5 days of implantation, the long diameter and short diameter of the tumor were measured, and the mice were divided into groups such that each group has an equivalent average tumor volume. For grouping, a grouping soft (general grouping system (Visions) was used. From the next day of the grouping, a test substance suspended in 0.5% MC (methyl cellulose) was repeatedly orally administered twice a day for 10 days (30 mg/kg). The tumor volume was measured twice a week and used as an index of antitumor activity. As a control, 0.5% MC was used and the test was performed with n=6-8.
The index (T/C (%)) of the antitumor activity was calculated according to the following formula.
T/C(%)=(The average tumor volume of the group treated with a test substance)/(The average tumor volume of the Vehicle group)×100
The tumor volume was calculated according to the following formula.
Tumor volume(mm^3)=L×W×W/2
(L: long diameter (mm) of tumor, W: short diameter (mm) of tumor)

For assay [4], the system named is p27 protein. Kind of assay: p27 protein induction test (Western blotting). The assay is classed as cell-based. As to conditions: test substance (0.1 1M), 24 hrs, ACHN cells or HT-29 cells, compared to DMSO, n=2. A digest of the protocol:
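ACHN or HT-29 cells grown 24 h, then treated with test substance at […] (DMSO) for 24 h. Lysates normalised by protein content and probed by Western blot with anti-p27 antibody. Band density quantified by densitometer against DMSO control, n=2 averaged.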
(In general: Immunoblotting shows a protein as a band on a membrane.)

Assay [5] has as its target B-Raf and MEK1 (Homo sapiens, UniProt Q02750). Kind of assay: MEK enzyme inhibitory activity, B-Raf and MEK1 system. The assay is classed as biochemical. The note with it: 30° C., 20 min, [γ-32P]-ATP; average of two or three tests. How it is done:
(§2) To an evaluation system where Raf (B-Raf or c-Raf) and MEK (MEK1 or MEK2) were mixed, or MEK (MEK1 or MEK2) and ERK2 were mixed was added a test substance dissolved in DMSO, and an ATP solution containing [γ-32P]-ATP was added to start the enzyme reaction. After reacting at 30° C. for 20 min, the reaction mixture was subjected to SDS-PAGE (sodium dodecylsulfate-polyacrylamide gel electrophoresis) and radioactivity of phosphorylated MEK or ERK2 was measured by Bio Imaging Analyzer (BAS2000, Fuji photo film).

Assay [6] has as its target B-Raf and MEK2 (Homo sapiens, UniProt P36507). Kind of assay: MEK enzyme inhibitory activity, B-Raf and MEK2 system. The note with it: 30° C., 20 min, [γ-32P]-ATP; average of two or three tests. Format: biochemical. How it is done: as §2
The target in assay [7] is c-Raf and MEK2 (Homo sapiens, UniProt P36507). As to the kind of experiment: MEK enzyme inhibitory activity, c-Raf and MEK2 system. The assay is classed as biochemical. As to conditions: 30° C., 20 min, [γ-32P]-ATP; average of two or three tests. How it is done:
as §2

The target of assay [8] is MEK1 and ERK2 (Homo sapiens, UniProt Q02750). Kind of assay: MEK enzyme inhibitory activity, MEK1 and ERK2 system. As to conditions: 30° C., 20 min, [γ-32P]-ATP; average of two or three tests. Format: biochemical. How it is done: as §2
Sequence of MEK1 and ERK2 (Q02750 whole entry): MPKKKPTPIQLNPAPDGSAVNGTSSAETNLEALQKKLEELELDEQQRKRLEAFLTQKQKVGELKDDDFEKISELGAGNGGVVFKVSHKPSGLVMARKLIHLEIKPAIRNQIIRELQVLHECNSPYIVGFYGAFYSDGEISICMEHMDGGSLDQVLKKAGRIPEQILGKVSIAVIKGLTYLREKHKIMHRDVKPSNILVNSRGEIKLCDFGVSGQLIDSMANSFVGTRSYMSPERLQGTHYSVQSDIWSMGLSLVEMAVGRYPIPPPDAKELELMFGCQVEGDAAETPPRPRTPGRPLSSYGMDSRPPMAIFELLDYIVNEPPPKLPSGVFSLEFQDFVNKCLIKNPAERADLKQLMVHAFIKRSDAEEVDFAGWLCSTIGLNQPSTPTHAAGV
Assay [9] addresses MEK2 and ERK2 (Homo sapiens, UniProt P36507). As to the kind of experiment: MEK enzyme inhibitory activity, MEK2 and ERK2 system. The assay is classed as biochemical. The note with it: 30° C., 20 min, [γ-32P]-ATP; average of two or three tests. How it is done: as §2
The test system of assay [10] is p15 protein. Kind of assay: Evaluation of p15 induction activity (Western blotting). The assay is classed as cell-based. The note with it: test substance 0.1 μM, 24 hrs, ACHN cells or HT-29 cells, compared to DMSO, n=2. The procedure, abridged: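 p15 protein quantified by densitometry of anti-p15 Western blots (10 μg protein per lane, mean of n=2). Samples came from HT-29 or ACHN cells given 0.1 μM compound for 24 h after 24 h plating, with DMSO as control.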

The subject of assay [11] is TNF-α or IL-6. As to the kind of experiment: Evaluation on inflammatory cytokine production (LPS-stimulated PBMC). The assay is classed as cell-based. The note with it: human PBMC stimulated with LPS.
Assay [12] relates to ACHN cells or HT-29 cells. As to the kind of experiment: Cell cycle analysis (flow cytometry, CycleTEST PLUS). The assay is classed as cell-based. The note with it: test substance less than 10 μM, 24 hrs, compared to DMSO, n=2, read-out: CELL RATIO OF G0/G1 PHASE. How it is done:
ACHN cells or HT-29 cells were cultured in a 6 well plate at 2.5×10^5 cells/1.8 mL/well for 24 hrs, then a test substance (less than 10 μM) dissolved in DMSO was added. After 24 hrs, cells were detached using trypsin-EDTA and the DNA content of single cell was analyzed by flow cytometry method using a CycleTEST PLUS (BECKTON DICKINSON) kit, and the proportion of the cells in the G0/G1 phase·S phase·G2/M phase was calculated. As a control, DMSO was used and the test was performed with n=2.
For orientation: In flow cytometry, cells or beads pass a laser one at a time.

In assay [13] the test system is mouse (DBA/1) collagen arthritis. As to conditions: 17 days after boost, 1 mg/kg oral once a day for 38 days; medium group 2.2; p<0.001; n=16.
Experimental: Bovine type II collagen (100 μg) was resuspended with Freund's complete adjuvant and intracutaneously administered (initial immunization) to the tail head of mouse (DBA/1). Three weeks later, the same collagen was given to the tail head as boost, whereby multiple arthritis was induced. The test substance was oral administered forcibly once a day for 38 days from immediately before the initial immunization, and arthritis score after boost was calculated twice a week to examine the arthritis onset suppressing effect. For arthritis scores, the level of swelling of each of the four limbs of the mice was scored in 4 levels, and the average of the scores of four limbs was taken as the arthritis score of each individual. The test was performed with n=16.

Structures are written as SMILES.

Sequence of B-Raf and MEK1 (Q02750 whole entry): as above
Sequence of MEK2 and ERK2 (P36507 whole entry): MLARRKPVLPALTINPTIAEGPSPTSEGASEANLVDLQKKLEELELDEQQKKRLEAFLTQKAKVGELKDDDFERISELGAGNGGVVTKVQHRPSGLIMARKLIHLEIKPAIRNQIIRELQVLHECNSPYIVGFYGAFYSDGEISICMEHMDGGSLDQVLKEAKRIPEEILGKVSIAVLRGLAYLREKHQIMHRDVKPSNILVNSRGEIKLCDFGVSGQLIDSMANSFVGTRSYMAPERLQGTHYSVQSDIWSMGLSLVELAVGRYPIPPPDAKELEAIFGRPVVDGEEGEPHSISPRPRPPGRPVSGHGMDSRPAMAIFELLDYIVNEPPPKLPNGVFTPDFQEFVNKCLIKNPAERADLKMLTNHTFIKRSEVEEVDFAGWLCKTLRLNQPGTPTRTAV
Sequence of c-Raf and MEK2 (P36507 whole entry): as above
Sequence of B-Raf and MEK2 (P36507 whole entry): as above

One may read the IC50 as the point on the concentration scale where inhibition reaches its midpoint. A higher IC50 goes with a need for much substance. `Cn1c(=O)cc(Nc2ccc(I)cc2F)c2c(=O)n(C3CC3)c(=O)n(-c3cccc(NS(C)(=O)=O)c3)c21` [Example 1-257]: the concentration for half-maximal inhibition (IC50) in assay [1] and in assay [2] was < 0.01 µM in each case. Moreover, the response vs control in vivo at 30 mg/kg in assay [3] is 26%. In addition, the fold induction at 0.1 µM in [4] was ≥ 1.5. Moreover, the “IC50 of various enzyme reaction system, B-Raf MEK1” value in assay [5] amounted to 0.0060 µM. In addition, in assay [6], the “IC50 of various enzyme reaction system, B-Raf MEK2” value came out at 0.0188 µM. Moreover, the “IC50 of various enzyme reaction system, c-Raf MEK2” value in assay [7] came out at 0.0078 µM. For the same molecule, in assay [8], the “IC50 of various enzyme reaction system, MEK1 ERK2” value was 1.3 µM. For the same molecule, in assay [9], the “IC50 of various enzyme reaction system, MEK2 ERK2” value was determined as 1.6 µM.

Turning to `C#Cc1ccc(Nc2c3c(=O)n(C4CC4)c(=O)n(-c4cccc(NS(C)(=O)=O)c4)c3c(C)c(=O)n2C)c(F)c1` [Example 3-8], the IC50 in assay [1] was 0.01 to 0.1 µM; in assay [2] it was < 0.01 µM. The fold induction at 0.1 µM in [10] is ≥ 1.5. The response vs control in vivo at 30 mg/kg in assay [3] was found to be 27%.

Consider `CC(=O)Nc1cccc(-n2c(=O)n(C3CC3)c(=O)c3c(Nc4ccc(I)cc4F)n(C)c(=O)c(C)c32)c1` [Example 4-1, N-{3-[3-cyclopropyl-5-(2-fluoro-4-iodophenylamino)-6,8-dimethyl-2,4,7-trioxo-3,4,6,7-tetrahydro-2H-pyrido[4,3-d]pyrimidin-1-yl]-phenyl}-acetamide], for which the IC50 in assay [1] and in [2] was < 0.01 µM in each case. Moreover, the response vs control in vivo at 30 mg/kg in assay [3] stood at 3%. For the same molecule, in assay [11], the “production of TNF-α or IL-6” value is recorded as “suppressed”.

Regarding `CC(=O)Nc1cccc(-n2c(=O)n(C)c(=O)c3c(Nc4ccc(I)cc4F)n(C)c(=O)c(C)c32)c1` [Example 4-15], the IC50 in assay [1] was 0.01 to 0.1 µM; in [2] it was < 0.01 µM. In addition, the fold induction at 0.1 µM in assay [10] and in [4] was ≥ 1.5 throughout. Further, the response vs control in vivo at 30 mg/kg in [3] amounted to 31%.

Consider `Cc1c(=O)n(C)c(Nc2ccc(I)cc2F)c2c(=O)n(C)c(=O)n(-c3cccc(NS(C)(=O)=O)c3)c12` [Example 4-16, N-{3-[5-(2-fluoro-4-iodophenylamino)-3,6,8-trimethyl-2,4,7-trioxo-3,4,6,7-tetrahydro-2H-pyrido[4,3-d]pyrimidin-1-yl]phenyl}methanesulfonamide], for which the concentration for half-maximal inhibition (IC50) in assay [1] and in assay [2] was < 0.01 µM each time. Moreover, the fold induction at 0.1 µM in assay [10] and in [4] was ≥ 1.5 throughout. In addition, the fold induction at up to 10 µM in [12] was ≥ 1.2. In addition, the response vs control in vivo at 30 mg/kg in [3] was 10%. Besides, the “production of TNF-α or IL-6” value in assay [11] is “suppressed”.

Regarding `C#Cc1ccc(Nc2c3c(=O)n(C)c(=O)n(-c4cccc(NS(C)(=O)=O)c4)c3c(C)c(=O)n2C)c(F)c1` [Example 4-49], the IC50 is 0.01 to 0.1 µM in assay [1] and < 0.01 µM in [2]. In addition, the fold induction at 0.1 µM in [10] and in [4] was ≥ 1.5 in each case. Further, the response vs control in vivo at 30 mg/kg in [3] stood at 35%.

Regarding `Cc1c(=O)n(C)c(Nc2ccc(I)cc2F)c2c(=O)n(C3CC3)c(=O)n(-c3cccc(NS(N)(=O)=O)c3)c12` [Example 4-54], the 50% inhibitory concentration (IC50) in assay [1] and in [2] was < 0.01 µM in each case. Moreover, the fold induction at 0.1 µM in [10] and in assay [4] was ≥ 1.5 in each case. In addition, the response vs control in vivo at 30 mg/kg in [3] worked out at 11%.

`Cc1c(=O)n(C)c(Nc2ccc(I)cc2F)c2c(=O)n(C3CC3)c(=O)n(-c3ccc(NS(C)(=O)=O)cc3)c12` [Example 4-70]: the IC50 in assay [1] was 0.01 to 0.1 µM; in assay [2], < 0.01 µM. The fold induction at 0.1 µM in assay [10] and in assay [4] was ≥ 1.5 each time. Moreover, in assay [12], the fold induction at up to 10 µM is ≥ 1.2. Moreover, the response vs control in vivo at 30 mg/kg in assay [3] is 31%.

Take `Cc1c(=O)n(C)c(Nc2ccc(I)cc2F)c2c(=O)n(C3CC3)c(=O)n(-c3ccc(S(N)(=O)=O)cc3)c12` [Example 4-104]: the IC50 in [1] and in [2] was < 0.01 µM in each case. The fold induction at 0.1 µM in [10] and in assay [4] was ≥ 1.5 throughout. In assay [12], the fold induction at up to 10 µM is ≥ 1.2.

Turning to `Cc1c(=O)n(C)c(Nc2ccc(I)cc2F)c2c(=O)n(C3CC3)c(=O)n(-c3ccc4oc(=O)[nH]c4c3)c12` [Example 4-126], the IC50 in assay [1] and in assay [2] was < 0.01 µM throughout. Besides, the fold induction at 0.1 µM in assay [10] and in [4] was ≥ 1.5 each time. The fold induction at up to 10 µM in assay [12] is ≥ 1.2.

In the case of `CC(=O)Nc1cccc(-n2c(=O)n(C3CC3)c(=O)c3c(Nc4ccc(I)cc4F)n(C)c(=O)c(C)c32)c1.CC(=O)O` [N-{3-[3-Cyclopropyl-5-(2-fluoro-4-iodo-phenylamino)-6,8-dimethyl-2,4,7-trioxo-3,4,6,7-tetrahydro-2H-pyrido[4,3-d]pyrimidin-1-yl]-phenyl}-acetamide Acetic Acid Solvate], the arthritis score in assay [13] is 0.57.

Source of the values: US20180273531A1, “PYRIMIDINE COMPOUND AND MEDICAL USE THEREOF” (Japan Tobacco Inc., priority 2004, published 2018).
